Measured values from patent US20120022078A1, “ARYL INDOLE DERIVATIVES” (MSD K.K., priority 2010, published 2012).

What follows are compounds tested against T1, human QRFP receptor (GPR103) (Homo sapiens, UniProt Q96P65) (assay: QRFP43 binding inhibition test ([125I]QRFP43, membranes of GPR103-expressing CHO-K1 cells)). Conditions: membrane specimen from QRFP receptor (GPR103) expressing cells, 25° C., 1 hour, 20,000 cpm [125I]QRFP43; read-out: IC50 (50% inhibition concentration for the specific [125I] QRFP43 binding).
T1 construct: expressed in transfected cells; host or cells: NFAT β-Lactamase CHO-K1 host cells (Aurora); membrane specimen
T1 sequence (Q96P65 1-431): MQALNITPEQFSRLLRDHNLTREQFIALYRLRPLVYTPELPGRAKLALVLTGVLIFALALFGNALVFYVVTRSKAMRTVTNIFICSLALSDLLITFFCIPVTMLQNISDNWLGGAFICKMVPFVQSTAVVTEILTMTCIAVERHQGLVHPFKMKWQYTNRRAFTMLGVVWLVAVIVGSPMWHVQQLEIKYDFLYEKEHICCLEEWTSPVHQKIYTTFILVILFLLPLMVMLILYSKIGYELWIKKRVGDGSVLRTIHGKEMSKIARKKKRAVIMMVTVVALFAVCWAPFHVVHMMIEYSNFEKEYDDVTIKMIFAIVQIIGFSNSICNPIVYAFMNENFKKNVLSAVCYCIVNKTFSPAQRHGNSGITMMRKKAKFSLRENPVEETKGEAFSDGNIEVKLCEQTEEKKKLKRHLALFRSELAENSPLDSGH
Source text: The cDNA sequence [Accession No. NM_198179] that codes for human QRFP receptor (GPR103) was cloned into an expression vector pEF1V5-HisB (Invitrogen). The expression vector so prepared was transfected into NFAT β-Lactamase CHO-K1 host cells (Aurora) to obtain QRFP receptor (GPR103) expressing cells, using the cationic lipid method [see Proceedings of the National Academy of Sciences of the United States of America, Vol. 84, p. 7413 (1987)].
The membrane specimen prepared from the QRFP receptor (GPR103) expressing cells was incubated at 25° C. for 1 hour with a test compound and 20,000 cpm [^125I ] QRFP43 (PerkinElmer, Inc.) in an assay buffer (50 mM Tris-HCl, 1 mM EDTA, and 0.1% BSA, pH 7.4), followed by filtration using a glass filter GF/C. After washing with a 50 mM Tris-HCl (containing 2 mM EDTA, 10 mM MgCl2, and 0.04% Tween-20) buffer at pH 7.4, the radioactivity on the glass filter was determined using a gamma counter. Non-specific binding was measured in the presence of 1 μM peptide QRFP43, and 50% inhibition concentration (IC50 value) of the test compound for the specific [^125I] QRFP43 binding was determined [see Endocrinology, Vol. 131, p. 2090 (1992)].
Work on `CN1CCN(Cc2cnc(-c3cc4ccccc4n3C)s2)CC1` [Example 1, 1-Methyl-2-{5-[(4-methylpiperazin-1-yl)methyl]-1,3-thiazol-2-yl}-1H-indole] yielded an IC50 of 49.8 nM. `CN1CCN(Cc2cc(-c3cc4ccccc4n3C)ncc2F)CC1` [Example 2] was tested, and the IC50 was 33.1 nM. For `CN1CCN(Cc2ccc(F)c(-c3cc4ccccc4n3C)c2)CC1` [Example 3, 2-{2-Fluoro-5-[(4-methylpiperazin-1-yl)methyl]phenyl}-1-methyl-1H-indole], the IC50 was 48.3 nM. Compound `CN1CCN(Cc2cnc(F)c(-c3cc4ccccc4n3C)c2)CC1` [Example 4] has an IC50 of 52.5 nM. `CN1CCN(Cc2cncc(-c3cc4ccccc4n3C)c2)CC1` [Example 5, 1-Methyl-2-{5-[(4-methylpiperazin-1-yl)methyl]pyridin-3-yl}-1H-indole] gave an IC50 of 111 nM.
